# Entries after “also recorded” stand apart in the source; their conditions may differ.
# Key:
# [1] = tested on: dorsal root ganglia (DRG) cultures; assay: Regeneration of DRG cultures after vincristine removal (βIII-tubulin and GFAP immunostaining); assay type: cell-based, mouse; conditions: 5 nM vincristine day 5 to 10, 6 more days without drug; IL-6-/- DRG
# Excerpt: I further investigated whether the IL-6R/IL-6 could have neural regenerative effects by adding IL-6R/IL-6 after the action of vincristine had taken place. Cultures in which the axonal network was formed in the presence of NGF for 5 days were either continued for another 11 days without or with IL-6R/IL-6 (Panel A and B, respectively), or treated for 5 days by vincristine at which time vincristine was removed and culture continued for 6 more days (panels C-F). […] These experiments indicate that IL-6R/IL-6 chimera promotes regeneration of neural and glial cells when added after exposure to the chemotherapeutic agent.
# (§1) DRGs were prepared as detailed before (Haggiag et al, 1999, 2001) from embryos of (C57BL/6×129Sv) F1 mice. In some experiments, corresponding IL-6−/− mutant mice were used (Mendel et al, 1998). The DRGs were seeded onto glass coverslips (precoated with a solution of 20 μg/ml poly-D-lysine, 250 μg/ml fibronectin), which were placed in 12-well Costar plates. The regular culture medium was 0.5 ml DMEM/F12 medium with 1% N2 supplement, 10% fetal bovine serum, 2% horse serum, 1.4 mM glutamine (all from Gibco/Invitrogen) and 50 ng/ml NGF (2.5S; Alomone Labs, Jerusalem, Israel). Cultures were maintained at 37° C., 5% CO2 and medium replaced every third day. […]
# [2] = tested on: dorsal root ganglia (DRG) cultures; assay: Protection of the axonal network in DRG cultures intoxicated by vincristine (βIII-tubulin immunostaining); assay type: cell-based, mouse; conditions: 10 nM vincristine for 2 days; βIII-tubulin staining
# Protocol: (§2) IL-6R/IL-6 chimera (Chebath et al, 1997) was used to explore prevention against vincristine intoxication in vitro. For this purpose, cultures of dorsal root ganglia (DRG) from mouse embryos (day E17) in which neuronal outgrowth was stimulated by Nerve Growth Factor (NGF), were subsequently exposed to 10 nM vincristine which induces a progressive axonal degeneration process (Wang et al., J Neuropathol Exp Neurol. 2000 July; 59(7):599-606). […] Neurodegeneration was further examined by monitoring the proteolytic activation of caspase-3, which denotes the early stages of apoptosis in various neuropathies (Russell et al, Neurobiol Dis. 1999 October; 6(5):347-63).
# as §1
# [3] = tested on: activated caspase-3 in DRG cultures; assay: Caspase-3 activation (apoptosis) in DRG cultures treated with vincristine; assay type: cell-based, mouse; conditions: 10 nM vincristine for 5 days
# Protocol: as §2, §1
# [4] = tested on: peripheral neuropathy caused by carboplatin/paclitaxel; conditions: at the doses and regime tested; cited from earlier work
Compound,Degeneration of the axonal network 6 days after vincristine removal [1],Loss of axons in DRG outgrowth caused by vincristine [2],Caspase-3 activation caused by vincristine [3],Prevention of CIPN in clinical trials [4]
CC[C@]1(O)C[C@H]2CN(CCc3c([nH]c4ccccc34)[C@@](C(=O)OC)(c3cc4c(cc3OC)N(C=O)[C@H]3[C@@](O)(C(=O)OC)[C@H](OC(C)=O)[C@]5(CC)C=CCN6CC[C@]43[C@@H]65)C2)C1 [vincristine],extensive degeneration of the axonal network was still observed; also recorded: extensive degeneration of the axonal network was still present,considerable loss of axons; also recorded: extensive neurodegeneration,Positive reaction to antibodies against activated caspase-3,
"LIF: recombinant leukemia inhibitor factor (LIF), another gp130 activator",,,,ineffective

# — patent US8394367B2, “IL6R/IL6 chimera for therapy of chemotherapy-induced peripheral neuropathy” (Yeda Research and Development Co., Ltd., priority 2004, dated 2013)
